Experiment: xn = mol fraction of the nth substance listed

CC1CCC(=O)O1 (stereo not drawn) [γ-valerolactone] + O=C=O
Fluid (supercritical or subcritical phases), Pycnometric method
Settings	mass density [kg/m3]
332.8 K, 12280 kPa, x1 = 0.025	652
332.8 K, 12340 kPa, x1 = 0.025	655
332.8 K, 12390 kPa, x1 = 0.025	659
332.8 K, 12460 kPa, x1 = 0.025	663
332.8 K, 12530 kPa, x1 = 0.025	667
332.8 K, 12600 kPa, x1 = 0.025	671
332.8 K, 12680 kPa, x1 = 0.025	675
332.8 K, 12840 kPa, x1 = 0.025	683
332.8 K, 12980 kPa, x1 = 0.025	690
332.8 K, 13130 kPa, x1 = 0.025	696
332.8 K, 13420 kPa, x1 = 0.025	710
332.8 K, 13670 kPa, x1 = 0.025	718
332.8 K, 13940 kPa, x1 = 0.025	728
332.8 K, 14270 kPa, x1 = 0.025	738
332.8 K, 14540 kPa, x1 = 0.025	744
332.8 K, 14820 kPa, x1 = 0.025	752
332.8 K, 15190 kPa, x1 = 0.025	761
332.9 K, 11320 kPa, x1 = 0.01	487
332.9 K, 11330 kPa, x1 = 0.01	488
332.9 K, 11340 kPa, x1 = 0.01	490
332.9 K, 11350 kPa, x1 = 0.01	491
332.9 K, 11370 kPa, x1 = 0.01	493
332.9 K, 11380 kPa, x1 = 0.01	494
332.9 K, 11400 kPa, x1 = 0.01	496
332.9 K, 11410 kPa, x1 = 0.01	497
332.9 K, 11420 kPa, x1 = 0.01	498
332.9 K, 11440 kPa, x1 = 0.01	500
332.9 K, 11450 kPa, x1 = 0.01	501
332.9 K, 11470 kPa, x1 = 0.01	503
332.9 K, 11490 kPa, x1 = 0.01	506
332.9 K, 11520 kPa, x1 = 0.01	509
332.9 K, 11560 kPa, x1 = 0.01	511
332.9 K, 11600 kPa, x1 = 0.01	515
332.9 K, 11630 kPa, x1 = 0.01	518
332.9 K, 11660 kPa, x1 = 0.01	521
332.9 K, 11700 kPa, x1 = 0.01	524
332.9 K, 11730 kPa, x1 = 0.01	527
332.9 K, 11770 kPa, x1 = 0.01	531
332.9 K, 11810 kPa, x1 = 0.01	534
332.9 K, 11850 kPa, x1 = 0.01	537
332.9 K, 11890 kPa, x1 = 0.01	540
332.9 K, 11940 kPa, x1 = 0.01	543

Settings	mass density [kg/m3]
332.8 K, Gas, high pressure variable cell, x1 = 0.025	649

From the NIST ThermoML archive (doi:10.1021/je8007759)
